The record followed here is patent US20050118244A1, “Transmittal therapeutic systems containing steroid hormones and propylene glycol monocaprylate” (LTS Lohmann Therapie-System AG, priority 2001, published 2005).

This series in a line: Flux of active ingredient from transdermal therapeutic system in modified Franz diffusion cell. It counts as in vitro ADME, human. Conditions: for Cumulative amount of active ingredient after 3 days: human epidermis, 32° C. On the procedure:
The measurements were carried out as follows: a modified Franz diffusion cell and, in each case, a transdermal therapeutic system with an effective diffusion area of 4.1 cm^2 was used. The test temperature was 32° C. The flux of active ingredient was measured on an epidermis from human skin. The acceptor used was an aqueous solution of 0.1% hydroxypropyl-β-cyclodextrin+0.1% NaN3; the acceptor volume was 9 ml (volume exchange after 32, 48, 56 and 72 hours).

As for `C[C@]12CC[C@H]3[C@@H](CCC4=CC(=O)CC[C@@]43C)[C@@H]1CC[C@@H]2O` [Testosterone, testosterone], the “Cumulative amount of active ingredient after 3 days” value is listed as 36.2 μg/cm^2 (TTS formula: Testosterone 2.0 % by weight, Durotak 2287 93.0 %, propylene glycol monocaprylate 5.0 %) and 30.2 μg/cm^2 (TTS formula: Testosterone 2.0 % by weight, Durotak 2287 98.0 %, no penetration promoter). Moreover, the “Increase of the flux of active ingredient on use of 5% propylene glycol monocaprylate” value (TTS with 5% propylene glycol monocaprylate versus TTS without, Examples 1 and 2) is “about 20%”.
As for `C#C[C@]1(O)C=C[C@H]2[C@@H]3CCC4=CC(=O)CC[C@@H]4[C@H]3C(=C)C[C@@]21C` [Progestogen (Org 30659), (17α)-17-hydroxy-11-methylene-19-norpregna-4,15-dien-20-yn-3-one], the “Cumulative amount of active ingredient after 3 days” value runs as follows: (TTS formula: Progestogen (Org 30659) 5.0 % by weight, Durotak 2287 90.0 %, propylene glycol monocaprylate 5.0 %) 51.3 μg/cm^2; (TTS formula: Progestogen (Org 30659) 5.0 % by weight, Durotak 2287 95.0 %, no penetration promoter) 44.7 μg/cm^2.
